This note sets out measurements from patent publication US20080070865A1, “TRIPHENYLPHOSPHINE OXIDE DERIVATIVES AND USES THEREOF” (Redpoint Bio Corporation, priority 2006, published 2008).

In this assay the target is T1, human TRPM5 ion channel (Homo sapiens, UniProt Q9NZQ8).
T1 construct: expressed in transfected cells
T1 sequence (Q9NZQ8 1-1165): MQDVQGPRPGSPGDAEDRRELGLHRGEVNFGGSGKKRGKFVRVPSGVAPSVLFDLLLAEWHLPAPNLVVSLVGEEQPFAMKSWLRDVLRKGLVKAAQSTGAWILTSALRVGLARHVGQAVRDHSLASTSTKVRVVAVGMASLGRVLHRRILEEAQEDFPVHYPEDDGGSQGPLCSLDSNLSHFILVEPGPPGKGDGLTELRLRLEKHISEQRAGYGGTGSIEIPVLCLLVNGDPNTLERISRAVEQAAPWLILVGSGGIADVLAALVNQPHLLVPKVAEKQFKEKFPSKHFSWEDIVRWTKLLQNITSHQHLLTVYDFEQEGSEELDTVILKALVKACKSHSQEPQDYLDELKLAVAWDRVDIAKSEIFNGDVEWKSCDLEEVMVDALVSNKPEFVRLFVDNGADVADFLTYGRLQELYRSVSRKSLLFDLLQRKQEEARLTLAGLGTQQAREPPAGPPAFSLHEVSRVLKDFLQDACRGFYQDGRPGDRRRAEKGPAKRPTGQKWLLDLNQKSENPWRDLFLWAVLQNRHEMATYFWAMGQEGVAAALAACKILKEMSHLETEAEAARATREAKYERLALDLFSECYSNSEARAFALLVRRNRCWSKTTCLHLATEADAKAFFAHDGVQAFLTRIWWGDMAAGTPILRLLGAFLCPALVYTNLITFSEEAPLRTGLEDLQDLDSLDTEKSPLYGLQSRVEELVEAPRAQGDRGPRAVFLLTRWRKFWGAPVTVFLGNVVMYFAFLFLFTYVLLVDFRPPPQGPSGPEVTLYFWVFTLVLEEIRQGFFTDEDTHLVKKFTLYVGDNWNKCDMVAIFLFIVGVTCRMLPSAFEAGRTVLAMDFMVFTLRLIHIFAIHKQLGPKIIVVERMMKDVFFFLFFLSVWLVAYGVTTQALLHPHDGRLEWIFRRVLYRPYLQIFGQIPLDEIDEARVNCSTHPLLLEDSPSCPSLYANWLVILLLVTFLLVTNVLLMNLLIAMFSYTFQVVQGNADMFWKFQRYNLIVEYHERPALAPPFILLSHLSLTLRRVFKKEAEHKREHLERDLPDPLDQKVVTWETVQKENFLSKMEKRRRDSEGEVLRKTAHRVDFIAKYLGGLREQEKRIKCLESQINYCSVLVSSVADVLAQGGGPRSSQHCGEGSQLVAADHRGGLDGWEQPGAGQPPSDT
In words: TRPM5 FLIPR membrane potential assay. Type of assay: cell-based. Particulars: HEK293 cells stably expressing human TRPM5, membrane potential dye, stimulation with 3 μM ATP. How it is done: The activity of human TRPM5 ion channel was measured in live cells on a fluorescent imaging plate reader (FLIPR). The basis of the assay (shown in FIG. 1) is the calcium-dependent activation of the ion channel which occurs by activation of a G-protein coupled receptor (GPCR). GPCR activation by an appropriate agonist causes a transient increase in […] Ca^2+ ion concentration which in turn causes the ion channel to open, letting in Na^+ ions. This influx causes a change in the membrane potential of the cell which can be monitored as a change in the fluorescent signal from voltage-dependent (membrane potential) fluorescent dyes. […] For the screening assay, the human TRPM5 gene was cloned, put into HEK293 cells, and a stable, high expression clone was used for screening. Cells were grown in standard media at 37° C. The day before screening, the cells were removed from flasks and added to 384 well clear bottom plates (8K cells in 20 μL/well). On the assay day, 20 μL of membrane potential dye (Part No. R8123, Molecular Devices Corp.) was added to the cells and dye was allowed to be taken up, i.e., load, into the cells for 1 hr at 37° C. […] The assay was started by addition of 10 μL of solution from the compound plate into the cell plate. During this process, continuous fluorescent recordings were made simultaneously for all wells. After addition of the compound solution, the tips were automatically washed and a stimulation solution of 3 μM ATP (an agonist for an endogenous purinurgic GPCR, was added to all wells of the cell plate. The height of the response was calculated and percent inhibition values, versus negative control wells, was calculated for the test samples. Unless otherwise indicated, the data in the table below were determined using the three assays described above, providing percent inhibition data at 10 μM.
Consider `O=P(c1ccccc1)(c1ccccc1)c1ccccc1` [Example 1], for which the half-maximal inhibitory concentration (IC50) stood at 5 µM. On to `O=P(c1ccccc1)(c1ccccc1)c1ccccc1O` [Example 2], for which 5 µM corresponded to half-maximal inhibition (IC50). The same measure for `O=P(c1ccccc1)(c1ccccc1)c1ccc(O)cc1` [Example 3]: 5 µM; for `Nc1ccccc1P(=O)(c1ccccc1)c1ccccc1` [Example 4]: 5 µM. With `COc1ccccc1P(=O)(c1ccccc1)c1ccccc1` [Example 5], the concentration for half-maximal inhibition (IC50) is > 100 µM. For the compound `CN(C)c1ccc(P(=O)(c2ccc(N(C)C)cc2)c2ccc(N(C)C)cc2)cc1` [Example 6], the half-maximal inhibitory concentration (IC50) is > 100 µM.
